Source: patent EP1025114B1, “3'-N-MODIFIED 6-O-SUBSTITUTED ERYTHROMYCIN KETOLIDE DERIVATIVES HAVING ANTIBACTERIAL ACTIVITY” (priority 1997, dated 1999)
In brackets after ≈: the same amount, converted by molar mass.

How the values were obtained:
Assay in all cases: In vitro antibacterial activity, agar dilution MIC
Format in all cases: cell-based
[1] = tested on: Staphylococcus aureus CMX 553; conditions: Staphylococcus aureus CMX 553 (organism code FF); BHI agar, 35-37 °C, 20 to 24 hours; unit assumed
Description: (§1) Representative compounds of the present invention were assayed in vitro for antibacterial activity as follows: Twelve petri dishes containing successive aqueous dilutions of the test compound mixed with 10 mL of sterilized Brain Heart infusion (BHI) agar (Difco 0418-01-5) were prepared. Each plate was inoculated with 1:100 (or 1:10 for slow-growing strains, such as Micrococcus and Streptococcus) dilutions of up to 32 different microorganisms, using a Steers replicator block. […] In addition, a control plate, using BHI agar containing no test compound, was prepared and incubated at the beginning and end of each test.
(§2) An additional plate containing a compound having known susceptibility patterns for the organisms being tested and belonging to the same antibiotic class as the test compound was also prepared and incubated as a further control, as well as to provide test-to-test comparability.
(§3) After incubation, each plate was visually inspected. The minimum inhibitory concentration (MIC) was defined as the lowest concentration of drug yielding no growth, a slight haze, or sparsely isolated colonies on the inoculum spot as compared to the growth control.

[2] = tested on: Streptococcus agalactiae CMX 508; conditions: Streptococcus agalactiae CMX 508 (organism code KK); BHI agar, 35-37 °C, 20 to 24 hours; unit assumed
Description: as §1, §2, §3

[3] = tested on: Staphylococcus aureus A-5278; conditions: Staphylococcus aureus A-5278 (organism code CC); BHI agar, 35-37 °C, 20 to 24 hours; unit assumed
Description: as §1, §2, §3

[4] = tested on: Nocardia Asteroides ATCC9970; conditions: Nocardia Asteroides ATCC9970 (organism code VV); BHI agar, 35-37 °C, 20 to 24 hours; unit assumed
Description: as §1, §2, §3

[5] = tested on: Staphylococcus aureus 1775; conditions: Staphylococcus aureus 1775 (organism code GG); BHI agar, 35-37 °C, 20 to 24 hours; unit assumed
Description: as §1, §2, §3

[6] = tested on: Micrococcus luteus ATCC 9341; conditions: Micrococcus luteus ATCC 9341 (organism code OO); BHI agar, 35-37 °C, 20 to 24 hours; unit assumed
Description: as §1, §2, §3

[7] = tested on: Staphylococcus epidermidis 3519; conditions: Staphylococcus epidermidis 3519 (organism code HH); BHI agar, 35-37 °C, 20 to 24 hours; unit assumed
Description: as §1, §2, §3

[8] = tested on: Staphylococcus aureus A5177; conditions: Staphylococcus aureus A5177 (organism code BB); BHI agar, 35-37 °C, 20 to 24 hours; unit assumed
Description: as §1, §2, §3

[9] = tested on: Streptococcus Pheumoniae 5649; conditions: Streptococcus Pheumoniae 5649 (organism code ZZA); BHI agar, 35-37 °C, 20 to 24 hours; unit assumed
Description: as §1, §2, §3

[10] = tested on: Streptococcus Pheumoniae 5979; conditions: Streptococcus Pheumoniae 5979 (organism code ZZ); BHI agar, 35-37 °C, 20 to 24 hours; unit assumed
Description: as §1, §2, §3

[11] = tested on: Mycobacterium smegmatis ATCC 114; conditions: Mycobacterium smegmatis ATCC 114 (organism code UU); BHI agar, 35-37 °C, 20 to 24 hours; unit assumed
Description: as §1, §2, §3

[12] = tested on: Staphylococcus aureus CMX 642A; conditions: Staphylococcus aureus CMX 642A (organism code DD); BHI agar, 35-37 °C, 20 to 24 hours; unit assumed
Description: as §1, §2, §3

[13] = tested on: Streptococcus Pheumoniae GYR 1171; conditions: Streptococcus Pheumoniae GYR 1171 (organism code YY); BHI agar, 35-37 °C, 20 to 24 hours; unit assumed
Description: as §1, §2, §3

Escherichia coli JUHL = Escherichia coli JUHL (organism code QQ); BHI agar, 35-37 °C, 20 to 24 hours; unit assumed
Description: as §1, §2, §3

[14] = tested on: Micrococcus luteus ATCC 4698; conditions: Micrococcus luteus ATCC 4698 (organism code PP); BHI agar, 35-37 °C, 20 to 24 hours; unit assumed
Description: as §1, §2, §3

Candida albicans CCH 442 = Candida albicans CCH 442 (organism code TT); BHI agar, 35-37 °C, 20 to 24 hours; unit assumed
Description: as §1, §2, §3

[15] = tested on: Staphylococcus aureus NCTC10649M; conditions: Staphylococcus aureus NCTC10649M (organism code EE); BHI agar, 35-37 °C, 20 to 24 hours; unit assumed
Description: as §1, §2, §3

[16] = tested on: Streptococcus pyogenes EES61; conditions: Streptococcus pyogenes EES61 (organism code LL); BHI agar, 35-37 °C, 20 to 24 hours; unit assumed
Description: as §1, §2, §3

[17] = tested on: Streptococcus pyogenes 930; conditions: Streptococcus pyogenes 930 (organism code MM); BHI agar, 35-37 °C, 20 to 24 hours; unit assumed
Description: as §1, §2, §3

Escherichia coli SS = Escherichia coli SS (organism code RR); BHI agar, 35-37 °C, 20 to 24 hours; unit assumed
Description: as §1, §2, §3

[18] = tested on: Streptococcus bovis A-5169; conditions: Streptococcus bovis A-5169 (organism code JJ); BHI agar, 35-37 °C, 20 to 24 hours; unit assumed
Description: as §1, §2, §3

Escherichia coli DC-2 = Escherichia coli DC-2 (organism code SS); BHI agar, 35-37 °C, 20 to 24 hours; unit assumed
Description: as §1, §2, §3

[19] = tested on: Streptococcus Pheumoniae ATCC6303; conditions: Streptococcus Pheumoniae ATCC6303 (organism code XX); BHI agar, 35-37 °C, 20 to 24 hours; unit assumed
Description: as §1, §2, §3

[20] = tested on: Enterococcus faecium ATCC 8043; conditions: Enterococcus faecium ATCC 8043 (organism code II); BHI agar, 35-37 °C, 20 to 24 hours; unit assumed
Description: as §1, §2, §3

[21] = tested on: Streptococcus pyogenes PIU 2548; conditions: Streptococcus pyogenes PIU 2548 (organism code NN); BHI agar, 35-37 °C, 20 to 24 hours; unit assumed
Description: as §1, §2, §3

[22] = tested on: Staphylococcus aureus ATCC 6538P; conditions: Staphylococcus aureus ATCC 6538P (organism code AA); BHI agar, 35-37 °C, 20 to 24 hours; unit assumed
Description: as §1, §2, §3

[23] = tested on: Haemophilis Influenzae DILL AMP R; conditions: Haemophilis Influenzae DILL AMP R (organism code WW); BHI agar, 35-37 °C, 20 to 24 hours; unit assumed
Description: as §1, §2, §3

SMILES	MIC [1] [µg/mL]	MIC [2] [µg/mL]	MIC [3] [µg/mL]	MIC [4] [µg/mL]	MIC [5] [µg/mL]	MIC [6] [µg/mL]	MIC [7] [µg/mL]	MIC [8] [µg/mL]	MIC [9] [µg/mL]	MIC [10] [µg/mL]	MIC [11] [µg/mL]	MIC [12] [µg/mL]	MIC [13] [µg/mL]	MIC (Escherichia coli JUHL) [µg/mL]	MIC [14] [µg/mL]	MIC (Candida albicans CCH 442) [µg/mL]	MIC [15] [µg/mL]	MIC [16] [µg/mL]	MIC [17] [µg/mL]	MIC (Escherichia coli SS) [µg/mL]	also measured
CC[C@H]1OC(=O)[C@H](C)C(=O)[C@H](C)[C@@H](O[C@@H]2O[C@H](C)C[C@H](NC)[C@H]2O)[C@](C)(OCC=Cc2cnc3ccccc3c2)C[C@@H](C)C(=O)[C@H](C)[C@H]2NC(=O)O[C@@]21C [Example 3, Compound of Formula (II); R is -CH2CH=CH-(3-quinolyl), R^p is H, W is absent, R^w is H, R^1 is H, R^2 is CH3-]	0.39	0.02	> 100	3.1	> 100	0.02	0.39	0.2	0.5	> 128	12.5	0.39	0.03	> 100	0.1	> 100	0.39	0.01	12.5	0.78	MIC [18]: 0.01 µg/mL; MIC (Escherichia coli DC-2): > 100 µg/mL; MIC [19]: 0.03 µg/mL; MIC [20]: 0.2 µg/mL; MIC [21]: 0.39 µg/mL; MIC [22]: 0.2 µg/mL; MIC [23]: 16 µg/mL
CCOC(=O)CN(C)[C@H]1C[C@@H](C)O[C@@H](O[C@@H]2[C@@H](C)C(=O)[C@@H](C)C(=O)O[C@H](CC)[C@@]3(C)OC(=O)N[C@@H]3[C@@H](C)C(=O)[C@H](C)C[C@@]2(C)OCC=Cc2cnc3ccccc3c2)[C@@H]1O [Example 5, Compound of Formula (II); R is -CH2CH=CH-(3-quinolyl), R^p is H, W is absent, R^w is H, R^1 is CH2C(O)-O-CH2CH3, R^2 is CH3.]	12.5	1.56	> 100	25	> 100	0.78	12.5	12.5	2	> 128	25	12.5	0.25	> 100	6.2	> 100	12.5	0.39	> 100	25	MIC [18]: 1.56 µg/mL; MIC (Escherichia coli DC-2): > 100 µg/mL; MIC [19]: 0.25 µg/mL; MIC [20]: 6.2 µg/mL; MIC [21]: 6.2 µg/mL; MIC [22]: 6.2 µg/mL; MIC [23]: 128 µg/mL
C=CCN(C)[C@H]1C[C@@H](C)O[C@@H](O[C@@H]2[C@@H](C)C(=O)[C@@H](C)C(=O)O[C@H](CC)[C@@]3(C)OC(=O)N[C@@H]3[C@@H](C)C(=O)[C@H](C)C[C@@]2(C)OCC=Cc2cnc3ccccc3c2)[C@@H]1O [Example 6, Compound of Formula (II); R is -CH2CH=CH-(3-quinolyl), R^p is H, W is absent, R^w is H, R^1 is CH2CH=CH2, R^2 is CH3]	0.05	0.05	> 100	0.1	> 100	0.02	0.2	0.05	0.25	16	0.2	0.1	≤ 0.004	50	0.2	> 100	0.05	0.02	3.1	0.2	MIC [18]: 0.02 µg/mL; MIC (Escherichia coli DC-2): 100 µg/mL; MIC [19]: ≤ 0.004 µg/mL; MIC [20]: 0.05 µg/mL; MIC [21]: 0.2 µg/mL; MIC [22]: 0.05 µg/mL; MIC [23]: 4 µg/mL
CC[C@H]1OC(=O)[C@H](C)C(=O)[C@H](C)[C@@H](O[C@@H]2O[C@H](C)C[C@H](N(C)CCF)[C@H]2O)[C@](C)(OCC=Cc2cnc3ccccc3c2)C[C@@H](C)C(=O)[C@H](C)[C@H]2NC(=O)O[C@@]21C [Example 7, Compound of Formula (II); R is -CH2CH=CH-(3-quinolyl), R^p is H, W is absent, R^w is H, R^1 is CH2CH2F, R^2 is CH3]	0.05	0.05	> 100	0.39	> 100	0.05	0.2	0.2	0.25	16	1.56	0.1	0.03	> 100	0.39	> 100	0.1	0.01	12.5	0.39	MIC [18]: 0.01 µg/mL; MIC (Escherichia coli DC-2): > 100 µg/mL; MIC [19]: 0.03 µg/mL; MIC [20]: 0.05 µg/mL; MIC [21]: 0.39 µg/mL; MIC [22]: 0.1 µg/mL; MIC [23]: 8 µg/mL
CC[C@H]1OC(=O)[C@H](C)C(=O)[C@H](C)[C@@H](O[C@@H]2O[C@H](C)C[C@H](N(C)Cc3ccccc3)[C@H]2O)[C@](C)(OCC=Cc2cnc3ccccc3c2)C[C@@H](C)C(=O)[C@H](C)[C@H]2NC(=O)O[C@@]21C [Example 8]	0.2 (≈ 0.238 µM)	0.02 (≈ 0.0238 µM)	> 100	0.2 (≈ 0.238 µM)	> 100	0.05 (≈ 0.0594 µM)	0.2 (≈ 0.238 µM)	0.2 (≈ 0.238 µM)	0.5 (≈ 0.594 µM)	> 128	0.39 (≈ 0.463 µM)	0.2 (≈ 0.238 µM)	0.03 (≈ 0.0356 µM)	> 100	0.05 (≈ 0.0594 µM)	> 100	0.2 (≈ 0.238 µM)	0.02 (≈ 0.0238 µM)	> 100	0.78 (≈ 0.926 µM)	MIC [18]: 0.02 µg/mL (≈ 0.0238 µM); MIC (Escherichia coli DC-2): > 100 µg/mL; MIC [19]: 0.03 µg/mL (≈ 0.0356 µM); MIC [20]: 0.1 µg/mL (≈ 0.119 µM); MIC [21]: 0.2 µg/mL (≈ 0.238 µM); MIC [22]: 0.2 µg/mL (≈ 0.238 µM); MIC [23]: 4 µg/mL (≈ 4.75 µM)
